Reference: ChEMBL document CHEMBL1155271, “Synthesis, crystal structures and antibacterial activity studies of aza-derivatives of phytoalexin from cotton plant--gossypol” (2009)
Converted amounts (≈) assume the structure as drawn.

Tests used:
Assay type in all cases: functional
Staphylococcus aureus [1] = test: Antimicrobial activity against Methicillin susceptible Staphylococcus aureus 213/7 by twofold dilution technique
Staphylococcus aureus [2] = test: Antimicrobial activity against Methicillin susceptible Staphylococcus aureus 237/7 by twofold dilution technique
Staphylococcus aureus [3] = test: Antimicrobial activity against Methicillin susceptible Staphylococcus aureus 238/7 by twofold dilution technique
Staphylococcus aureus [4] = test: Antimicrobial activity against Methicillin susceptible Staphylococcus aureus 239/7 by twofold dilution technique
Staphylococcus aureus [5] = test: Antimicrobial activity against Methicillin susceptible Staphylococcus aureus 242/7 by twofold dilution technique
Staphylococcus aureus [6] = test: Antimicrobial activity against Methicillin susceptible Staphylococcus aureus 243/7 by twofold dilution technique
Staphylococcus aureus [7] = test: Antimicrobial activity against methicillin-resistant Staphylococcus aureus 140/6 by twofold dilution technique
Staphylococcus aureus [8] = test: Antimicrobial activity against methicillin-resistant Staphylococcus aureus 141/6 by twofold dilution technique
Staphylococcus aureus [9] = test: Antimicrobial activity against methicillin-resistant Staphylococcus aureus 143/6 by twofold dilution technique
Staphylococcus aureus [10] = test: Antimicrobial activity against methicillin-resistant Staphylococcus aureus 144/6 by twofold dilution technique
Staphylococcus aureus [11] = test: Antimicrobial activity against methicillin-resistant Staphylococcus aureus 146/6 by twofold dilution technique
Staphylococcus aureus [12] = test: Antimicrobial activity against methicillin-resistant Staphylococcus aureus 200/7 by twofold dilution technique
Staphylococcus aureus [13] = test: Antimicrobial activity against methicillin-resistant Staphylococcus aureus 217/7 by twofold dilution technique
Staphylococcus aureus [14] = test: Antimicrobial activity against methicillin-resistant Staphylococcus aureus 218/7 by twofold dilution technique
Staphylococcus aureus [15] = test: Antimicrobial activity against methicillin-resistant Staphylococcus aureus 236/7 by twofold dilution technique
Staphylococcus aureus [16] = test: Antimicrobial activity against Staphylococcus aureus NCTC 4163 at 400 ug after 18 hrs by disk diffusion method; conditions: NCTC 4163, 18 h, read-out: DIZ
[17] = tested on: Staphylococcus epidermidis; test: Antimicrobial activity against Staphylococcus epidermidis ATCC 12228 at 400 ug after 18 hrs by disk diffusion method; conditions: ATCC 12228, 18 h, read-out: DIZ
Bacillus subtilis [18] = test: Antimicrobial activity against Bacillus subtilis ATCC 6633 at 400 ug after 18 hrs by disk diffusion method; conditions: ATCC 6633, 18 h, read-out: DIZ
Bacillus cereus [19] = test: Antimicrobial activity against Bacillus cereus ATCC 11778 at 400 ug after 18 hrs by disk diffusion method; conditions: ATCC 11778, 18 h, read-out: DIZ
Enterococcus hirae [20] = test: Antimicrobial activity against Enterococcus hirae ATCC 10541 at 400 ug after 18 hrs by disk diffusion method; conditions: ATCC 10541, 18 h, read-out: DIZ
Micrococcus luteus [21] = test: Antimicrobial activity against Micrococcus luteus ATCC 9341 at 400 ug after 18 hrs by disk diffusion method; conditions: ATCC 9341, 18 h, read-out: DIZ
Micrococcus luteus [22] = test: Antimicrobial activity against Micrococcus luteus ATCC 10240 at 400 ug after 18 hrs by disk diffusion method; conditions: ATCC 10240, 18 h, read-out: DIZ
Staphylococcus aureus [23] = test: Antimicrobial activity against Staphylococcus aureus ATCC 25923 at 400 ug after 18 hrs by disk diffusion method; conditions: ATCC 25923, 18 h, read-out: DIZ
Staphylococcus aureus [24] = test: Antimicrobial activity against Staphylococcus aureus ATCC 6538 at 400 ug after 18 hrs by disk diffusion method; conditions: ATCC 6538, 18 h, read-out: DIZ
Staphylococcus aureus [25] = test: Antimicrobial activity against Staphylococcus aureus ATCC 29213 at 400 ug after 18 hrs by disk diffusion method; conditions: ATCC 29213, 18 h, read-out: DIZ
Staphylococcus aureus [26] = test: Antimicrobial activity against Staphylococcus aureus NCTC 4163 after 18 hrs by twofold dilution technique; conditions: NCTC 4163, 18 h
Staphylococcus aureus [27] = test: Antimicrobial activity against Staphylococcus aureus ATCC 25923 after 18 hrs by twofold dilution technique; conditions: ATCC 25923, 18 h
Staphylococcus aureus [28] = test: Antimicrobial activity against Staphylococcus aureus ATCC 6538 after 18 hrs by twofold dilution technique; conditions: ATCC 6538, 18 h
Staphylococcus aureus [29] = test: Antimicrobial activity against Staphylococcus aureus ATCC 29213 after 18 hrs by twofold dilution technique; conditions: ATCC 29213, 18 h
[30] = tested on: Staphylococcus epidermidis; test: Antimicrobial activity against Staphylococcus epidermidis ATCC 12228 by twofold dilution technique
Bacillus subtilis [31] = test: Antimicrobial activity against Bacillus subtilis ATCC 6633 after 18 hrs by twofold dilution technique; conditions: ATCC 6633, 18 h
Bacillus cereus [32] = test: Antimicrobial activity against Bacillus cereus ATCC 11778 after 18 hrs by twofold dilution technique; conditions: ATCC 11778, 18 h
Enterococcus hirae [33] = test: Antimicrobial activity against Enterococcus hirae ATCC 10541 after 18 hrs by twofold dilution technique; conditions: ATCC 10541, 18 h
Micrococcus luteus [34] = test: Antimicrobial activity against Micrococcus luteus ATCC 9341 after 18 hrs by twofold dilution technique; conditions: ATCC 9341, 18 h
Micrococcus luteus [35] = test: Antimicrobial activity against Micrococcus luteus ATCC 10240 by twofold dilution technique
Staphylococcus aureus [36] = test: Antimicrobial activity against methicillin-resistant Staphylococcus aureus 136/6 by twofold dilution technique
Staphylococcus aureus [37] = test: Antimicrobial activity against Methicillin susceptible Staphylococcus aureus 206/7 by twofold dilution technique
Staphylococcus aureus [38] = test: Antimicrobial activity against Methicillin susceptible Staphylococcus aureus 207/7 by twofold dilution technique
Staphylococcus aureus [39] = test: Antimicrobial activity against Methicillin susceptible Staphylococcus aureus 208/7 by twofold dilution technique
Staphylococcus aureus [40] = test: Antimicrobial activity against Methicillin susceptible Staphylococcus aureus 212/7 by twofold dilution technique

Row | Structure (SMILES) | MIC (Staphylococcus aureus [1]) [µg/mL] | MIC (Staphylococcus aureus [2]) [µg/mL] | MIC (Staphylococcus aureus [3]) [µg/mL] | MIC (Staphylococcus aureus [4]) [µg/mL] | MIC (Staphylococcus aureus [5]) [µg/mL] | MIC (Staphylococcus aureus [6]) [µg/mL] | MIC (Staphylococcus aureus [7]) [µg/mL] | MIC (Staphylococcus aureus [8]) [µg/mL] | MIC (Staphylococcus aureus [9]) [µg/mL] | MIC (Staphylococcus aureus [10]) [µg/mL] | MIC (Staphylococcus aureus [11]) [µg/mL] | MIC (Staphylococcus aureus [12]) [µg/mL] | MIC (Staphylococcus aureus [13]) [µg/mL] | MIC (Staphylococcus aureus [14]) [µg/mL] | MIC (Staphylococcus aureus [15]) [µg/mL] | zone of inhibition at 400 µg/disc (Staphylococcus aureus [16]) [mm] | zone of inhibition at 400 µg/disc [17] [mm] | zone of inhibition at 400 µg/disc (Bacillus subtilis [18]) [mm] | zone of inhibition at 400 µg/disc (Bacillus cereus [19]) [mm] | zone of inhibition at 400 µg/disc (Enterococcus hirae [20]) [mm] | further results
1 | COc1ccc2[nH]cc(CCN/C=C3\C(=O)C(O)=C(C(C)C)c4cc(C)c(-c5c(C)cc6c(c5O)/C(=C/NCCc5c[nH]c7ccc(OC)cc57)C(=O)C(O)=C6C(C)C)c(O)c43)c2c1 | 100 (≈ 116 µM) | 100 (≈ 116 µM) | 100 (≈ 116 µM) | 100 (≈ 116 µM) | 50 (≈ 57.9 µM) | 100 (≈ 116 µM) | 100 (≈ 116 µM) | 100 (≈ 116 µM) | 100 (≈ 116 µM) | 200 (≈ 232 µM) | 100 (≈ 116 µM) | 100 (≈ 116 µM) | 200 (≈ 232 µM) | 100 (≈ 116 µM) | 100 (≈ 116 µM) | 16 | 15 | 15 | 15 | 14 | zone of inhibition at 400 µg/disc (Micrococcus luteus [21]): 11 mm; zone of inhibition at 400 µg/disc (Micrococcus luteus [22]): 15 mm; zone of inhibition at 400 µg/disc (Staphylococcus aureus [23]): 15 mm; zone of inhibition at 400 µg/disc (Staphylococcus aureus [24]): 16 mm; zone of inhibition at 400 µg/disc (Staphylococcus aureus [25]): 15 mm; MIC (Staphylococcus aureus [26]): 100 µg/mL (≈ 116 µM); MIC (Staphylococcus aureus [27]): 100 µg/mL (≈ 116 µM); MIC (Staphylococcus aureus [28]): 50 µg/mL (≈ 57.9 µM); MIC (Staphylococcus aureus [29]): 50 µg/mL (≈ 57.9 µM); MIC [30]: 200 µg/mL (≈ 232 µM); MIC (Bacillus subtilis [31]): 200 µg/mL (≈ 232 µM); MIC (Bacillus cereus [32]): 100 µg/mL (≈ 116 µM); MIC (Enterococcus hirae [33]): 100 µg/mL (≈ 116 µM); MIC (Micrococcus luteus [34]): 100 µg/mL (≈ 116 µM); MIC (Micrococcus luteus [35]): 100 µg/mL (≈ 116 µM); MIC (Staphylococcus aureus [36]): 100 µg/mL (≈ 116 µM); MIC (Staphylococcus aureus [37]): 100 µg/mL (≈ 116 µM); MIC (Staphylococcus aureus [38]): 200 µg/mL (≈ 232 µM); MIC (Staphylococcus aureus [39]): 100 µg/mL (≈ 116 µM); MIC (Staphylococcus aureus [40]): 100 µg/mL (≈ 116 µM)
2 | Cc1cc2c(C(C)C)c(O)c(O)c(C=O)c2c(O)c1-c1c(C)cc2c(C(C)C)c(O)c(O)c(C=O)c2c1O [GOSSYPOL] | 50 (≈ 96.4 µM) | 25 (≈ 48.2 µM) | 25 (≈ 48.2 µM) | 25 (≈ 48.2 µM) | 12.5 (≈ 24.1 µM) | 25 (≈ 48.2 µM) | 50 (≈ 96.4 µM) | 50 (≈ 96.4 µM) | 50 (≈ 96.4 µM) | 50 (≈ 96.4 µM) | 50 (≈ 96.4 µM) | 50 (≈ 96.4 µM) | 50 (≈ 96.4 µM) | 50 (≈ 96.4 µM) | 50 (≈ 96.4 µM) | 16 | 16 | 15 | 15 | 14 | zone of inhibition at 400 µg/disc (Micrococcus luteus [21]): 12 mm; zone of inhibition at 400 µg/disc (Micrococcus luteus [22]): 16 mm; zone of inhibition at 400 µg/disc (Staphylococcus aureus [23]): 15 mm; zone of inhibition at 400 µg/disc (Staphylococcus aureus [24]): 14 mm; zone of inhibition at 400 µg/disc (Staphylococcus aureus [25]): 15 mm; MIC (Staphylococcus aureus [26]): 50 µg/mL (≈ 96.4 µM); MIC (Staphylococcus aureus [27]): 25 µg/mL (≈ 48.2 µM); MIC (Staphylococcus aureus [28]): 12.5 µg/mL (≈ 24.1 µM); MIC (Staphylococcus aureus [29]): 12.5 µg/mL (≈ 24.1 µM); MIC [30]: 100 µg/mL (≈ 193 µM); MIC (Bacillus subtilis [31]): 100 µg/mL (≈ 193 µM); MIC (Bacillus cereus [32]): 25 µg/mL (≈ 48.2 µM); MIC (Enterococcus hirae [33]): 25 µg/mL (≈ 48.2 µM); MIC (Micrococcus luteus [34]): 25 µg/mL (≈ 48.2 µM); MIC (Micrococcus luteus [35]): 50 µg/mL (≈ 96.4 µM); MIC (Staphylococcus aureus [36]): 50 µg/mL (≈ 96.4 µM); MIC (Staphylococcus aureus [37]): 25 µg/mL (≈ 48.2 µM); MIC (Staphylococcus aureus [38]): 50 µg/mL (≈ 96.4 µM); MIC (Staphylococcus aureus [39]): 50 µg/mL (≈ 96.4 µM); MIC (Staphylococcus aureus [40]): 50 µg/mL (≈ 96.4 µM)
